This note sets out measurements from ChEMBL document CHEMBL1287757, “Straightforward synthesis of triazoloacyclonucleotide phosphonates as potential HCV inhibitors” (Bioorg Med Chem Lett, 2010).

For orientation: IC50 means the concentration that inhibits the measured activity by half. As usually defined, the CC50 is the concentration giving 50% cytotoxicity.

The source made the active and inactive calls. The calls are words filed in the database; no cut-off is given here. Bounds are passed on as bounds.

The test system of data set [1] is Hepatitis C virus. In words: Antiviral activity against HCV infected in Huh5.2 cells assessed as inhibition of viral replication by luciferase reporter gene assay. The class given is functional, organism-based, Hepacivirus hominis. The conditions noted are these: Huh-5-2.
A short description of data set [2]: Cytotoxicity against human HuH5.2 cells. The class given is cell-based, Huh-5-2.
For data set [3], the system named is Human immunodeficiency virus. In words: Antiviral activity against HIV assessed as inhibition of viral replication. The class given is functional, organism-based.
Data set [4] in a line: Selectivity ratio, ratio of CC50 for Huh5.2 cells to IC50 for HCV infected in Huh5.2 cells. The class given is cell-based. The conditions noted are these: human, Huh5.2 cells (CC50) and HCV-infected Huh5.2 cells (IC50).
The test system of data set [5] is Hepatitis C virus. The experiment in a line: Antiviral activity against HCV infected in Huh5.2 cells assessed as concentration required to inhibit viral replication without causing an antimetabolic effect. The class given is functional, Hepacivirus hominis.

Consider `Cc1cn(Cc2cn(CP(=O)(O)O)nn2)c(=O)[nH]c1=O`, for which the IC50 in the data set with Hepatitis C virus [1] is 26 µM. For the same molecule, in data set [2], the CC50 was over 300 µM. For the same molecule, the result in data set [3] was inactive. Further, the selectivity ratio in data set [4] is over 13.

With `O=c1ccn(Cc2cn(CCP(=O)(O)O)nn2)c(=O)[nH]1`, the IC50 with Hepatitis C virus [1] was 16 µM. This molecule yielded a CC50 in data set [2] of over 300 µM. The result in data set [3] was inactive. Further, in data set [4], the selectivity ratio was over 20. Further, the Imax in the data set on Hepatitis C virus [5] is reported as 75.47%.

Regarding `Cc1cn(Cc2cn(CCP(=O)(O)O)nn2)c(=O)[nH]c1=O`, the IC50 in the data set on Hepatitis C virus [1] was 20 µM. Besides, the CC50 in data set [2] was over 300 µM. The result in data set [3] was inactive. The selectivity ratio in data set [4] is over 15. Also, the Imax with Hepatitis C virus [5] is recorded as 79.28%.

Take `O=c1ccn(Cc2cn(CP(=O)(O)O)nn2)c(=O)[nH]1`: the IC50 with Hepatitis C virus [1] amounted to 29 µM. For the same molecule, in data set [2], the CC50 stood at 131 µM. Besides, the outcome in data set [3] was inactive. The selectivity ratio in data set [4] came out at 4.42.

Consider `Nc1ncnc2c1ncn2Cc1cn(CP(=O)(O)O)nn1`, for which the IC50 with Hepatitis C virus [1] was found to be 16 µM. In addition, in data set [2], the cytotoxic concentration (CC50) was over 300 µM. In addition, the result in data set [3] was inactive. In addition, in data set [4], the selectivity ratio is over 20. Also, the Imax in the data set on Hepatitis C virus [5] came to 80.65%.

Turning to `Nc1ncnc2c1ncn2Cc1cn(CCP(=O)(O)O)nn1`, the IC50 in the data set with Hepatitis C virus [1] is over 35 µM. In data set [2], this molecule displayed a CC50 of 35 µM. Besides, in data set [3], the result was inactive. Moreover, the selectivity ratio in data set [4] was under 1.
